Where a name gives a salt, the structure may show the parent alone. Read-outs that look alike come from different tables or passages of the source.
Key:
HCT-8/WT(NTZ) cells = assay: MTS cytotoxicity (drug tolerance) assay; settings: WT(NTZ) cells, after selection by NTZ
Description: (§1) Host cell drug tolerance to specified inhibitors was evaluated by 3-(4,5-dimethylthiazol-2-yl)-5-(3-carboxymethoxyphenyl)-2-(4-sulfophenyl)-2H-tetrazolium (MTS) assay. WT and transgenic host cells were seeded in 96-well plates (10,000 cells/well) and cultured for 24 h, followed by the addition of specified compounds at serially diluted concentrations and continued culture for 41 h. After 3 washes with serum-free medium, MTS solution (Saint-Bio, Shanghai, China) was added into the plates (20 μL/well) and incubated at 37°C for 2 h. Optical density at 490 nm (OD490) was measured using a Synergy LX multi-mode reader (BioTek, Winooski, VT). Drug tolerance was indicated by half-maximal cytotoxic concentrations (TC50 values) calculated by nonlinear regression using 4PL model. Selectivity index (SI) for each compound was determined by the ratio between TC50 and EC50 values (SI = TC50/EC50).
(§2) Surviving cells were allowed to recover in drug-free medium for 3–5 d to near confluence (round 1). The selection/recovery cycle were repeated once (round 2). […] Finally, all cells were cultured at the final selection concentrations of PTX or NTZ for ≥7 d, followed by culture in drug-free medium for 14 d. At this time point, cells were used for cytotoxicity and efficacy assays or cryopreserved in a liquid nitrogen tank. The resulting cell lines after PTX or NTZ selection were designated as WT(PTX), NC(PTX) and MDR1(PTX), or WT(NTZ), NC(NTZ) and MDR1(NTZ), respectively (Tables 1 and S2).

HCT-8/NC(NTZ) cells = assay: MTS cytotoxicity (drug tolerance) assay; settings: NC(NTZ) cells, after selection by NTZ
Description: as §1, §2

HCT-8/NC cells = assay: MTS cytotoxicity (drug tolerance) assay; settings: no drug selection
HCT-8/WT(PTX) cells = assay: MTS cytotoxicity (drug tolerance) assay; settings: WT(PTX) cells, after selection by PTX
Description: as §1
(§3) Surviving cells were allowed to recover in drug-free medium for 3–5 d to near confluence (round 1). The selection/recovery cycle were repeated once (round 2). […] The resulting cell lines after PTX or NTZ selection were designated as WT(PTX), NC(PTX) and MDR1(PTX), or WT(NTZ), NC(NTZ) and MDR1(NTZ), respectively (Tables 1 and S2).

HCT-8/WT cells = assay: MTS cytotoxicity (drug tolerance) assay; settings: for TC50: WT cells, no drug selection, MTS assay
Description: as §1

HCT-8/MDR1 cells [1] = assay: MTS cytotoxicity (drug tolerance) assay; settings: MDR1 cells, no drug selection; MTS assay
HCT-8/MDR1(PTX) cells = settings: MDR1(PTX) cells, after selection by PTX
Description: as §1, §3

Cryptosporidium parvum = assay: Anti-cryptosporidial efficacy assay (44-h infection/qRT-PCR); settings: for EC50: Cryptosporidium parvum; for On-target rate at EC50: Eq 2; for Eoff, proportion of off-parasite-target effect / Eon, proportion of on-parasite-target effect: MDR1(NTZ) vs. NC model, Eq 3 and 4
HCT-8/MDR1 cells [2] = settings: human, 41 h
HCT-8/NC(PTX) cells = assay: MTS cytotoxicity (drug tolerance) assay; settings: NC(PTX) cells, after selection by PTX
Description: as §1, §3

HCT-8/MDR1(NTZ) cells = assay: MTS cytotoxicity (drug tolerance) assay
Description: as §1, §3

Structure (SMILES): CN(C)C(=O)C(CCN1CCC(O)(c2ccc(Cl)cc2)CC1)(c1ccccc1)c1ccccc1 [Loperamide, Loperamide HCl]
- TC50 (HCT-8/WT(NTZ) cells): 16.23 µM
- TC50 (HCT-8/NC(NTZ) cells): 15.64 µM
- TC50 (HCT-8/NC cells): 16.08 µM
- TC50 (HCT-8/WT(PTX) cells): 16.42 µM
- TC50 (HCT-8/WT cells): 15.96 µM
- TC50 (HCT-8/MDR1 cells [1]): 16.49 µM

Structure (SMILES): CC(=O)Oc1ccccc1C(=O)Nc1ncc([N+](=O)[O-])s1 [Nitazoxanide]
- TC50 (HCT-8/WT(NTZ) cells): 38.70 µM
- TC50 (HCT-8/NC(NTZ) cells): 39.09 µM
- TC50 (HCT-8/MDR1(PTX) cells): 25.59 µM
- EC50 (Cryptosporidium parvum; MDR1, read-out: Antiparasitic efficacy (EC50), C. parvum cultured in MDR1(NTZ) host cells): 1070 nM
- EC50 (Cryptosporidium parvum; MDR1, read-out: Antiparasitic efficacy (EC50), C. parvum cultured in MDR1(PTX) host cells): 1060 nM
- EC50 (Cryptosporidium parvum; read-out: Antiparasitic efficacy (EC50), C. parvum cultured in NC host cells): 1110 nM
- EC50 (Cryptosporidium parvum; read-out: Antiparasitic efficacy (EC50), C. parvum cultured in WT host cells): 1090 nM
- Off-target rate at EC50 (Cryptosporidium parvum; MDR1(NTZ) cell model, Eq 1): -3.6%
- On-target rate at EC50 (Cryptosporidium parvum; MDR1(NTZ) cell model): 103.6%
- On-target rate at EC50 (Cryptosporidium parvum; MDR1(NTZ) cell model, listed as NTZ): 103.6%
- Action on parasite target (on-target) conclusion (Cryptosporidium parvum; MDR1-transgenic host cell model): 100% on-target
- Eoff, proportion of off-parasite-target effect (Cryptosporidium parvum; at EC10): -7.90%
- Eon, proportion of on-parasite-target effect (Cryptosporidium parvum; at EC10): 107.90%
- Eoff, proportion of off-parasite-target effect (Cryptosporidium parvum; at EC20): -6.10%
- Eon, proportion of on-parasite-target effect (Cryptosporidium parvum; at EC20): 106.10%
- Eoff, proportion of off-parasite-target effect (Cryptosporidium parvum; at EC30): -5.10%
- Eon, proportion of on-parasite-target effect (Cryptosporidium parvum; at EC30): 105.10%
- Eoff, proportion of off-parasite-target effect (Cryptosporidium parvum; at EC40): -4.30%
- Eon, proportion of on-parasite-target effect (Cryptosporidium parvum; at EC40): 104.30%
- Eoff, proportion of off-parasite-target effect (Cryptosporidium parvum; at EC50): −3.6%
- Eon, proportion of on-parasite-target effect (Cryptosporidium parvum; at EC50): 103.6%
- Eoff, proportion of off-parasite-target effect (Cryptosporidium parvum; at EC60): -2.90%
- Eon, proportion of on-parasite-target effect (Cryptosporidium parvum; at EC60): 102.90%
- Eoff, proportion of off-parasite-target effect (Cryptosporidium parvum; at EC70): -2.30%
- Eon, proportion of on-parasite-target effect (Cryptosporidium parvum; at EC70): 102.30%
- Eoff, proportion of off-parasite-target effect (Cryptosporidium parvum; at EC80): -1.50%
- Eon, proportion of on-parasite-target effect (Cryptosporidium parvum; at EC80): 101.50%
- Eoff, proportion of off-parasite-target effect (Cryptosporidium parvum; at EC90): -0.50%
- Eon, proportion of on-parasite-target effect (Cryptosporidium parvum; at EC90): 100.50%
- TC50 (HCT-8/NC cells): 25.90 µM
- TC50 (HCT-8/MDR1 cells [2]): 25.28 µM
- TC50 (HCT-8/NC(PTX) cells): 26.76 µM
- TC50 (HCT-8/WT(PTX) cells): 25.37 µM
- Pct change of TC50 (vs NC) (HCT-8/MDR1(NTZ) cells; MDR1(NTZ) vs NC cells): 101.5%
- TC50 (HCT-8/MDR1(NTZ) cells; human, 41 h): 52.19 µM
- TC50 (HCT-8/WT cells): 26.75 µM
- Calculated cytotoxicity at EC50 (HCT-8/WT cells; percent inhibition of WT host cell growth at the EC50 concentration, calculated with Eq 5 from k and h): 2.73%

Reference: paper PMC10079235 (PLOS Neglected Tropical Diseases, 2023)
